The source made the active and inactive calls. Bounds are passed on as bounds.

Experiment [1] relates to Streptococcus sp. 'group A'. Put plainly: growth inhibition of control SK(-) GAS strain, dose response, counter-screen for streptokinase expression inhibitor project, luminescence, kanamycin, BacTiterGlo, confirmation (AID 1900). It counts as functional, organism-based. For orientation: Counterscreens check selectivity or assay interference.
Another experiment concerns the target T1, Streptokinase A (Streptococcus pyogenes serotype M1, UniProt P10520).
T1 sequence (P10520 whole entry): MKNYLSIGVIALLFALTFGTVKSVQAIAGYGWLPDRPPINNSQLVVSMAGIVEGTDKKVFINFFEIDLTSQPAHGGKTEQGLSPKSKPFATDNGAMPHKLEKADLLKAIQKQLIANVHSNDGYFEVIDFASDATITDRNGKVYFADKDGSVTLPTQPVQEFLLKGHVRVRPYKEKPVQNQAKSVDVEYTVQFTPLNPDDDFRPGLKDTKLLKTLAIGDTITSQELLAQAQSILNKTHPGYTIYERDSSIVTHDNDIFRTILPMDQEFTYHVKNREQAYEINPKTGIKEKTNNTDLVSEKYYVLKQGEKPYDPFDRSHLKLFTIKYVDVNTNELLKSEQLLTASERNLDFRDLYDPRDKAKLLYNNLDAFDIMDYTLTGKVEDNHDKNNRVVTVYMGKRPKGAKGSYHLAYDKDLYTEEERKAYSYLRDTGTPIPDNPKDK
Description: S. pyogenes streptokinase expression inhibitors, potency, dose response, plasminogen activation absorbance, OD405 (AID 1914).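 Also: secreted streptokinase activity via plasminogen activation per viability signal from cell pellet.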 The class given is functional, Streptococcus pyogenes M1 GAS.

The next experiment has as its target T2, Protein RecA (Mycobacterium tuberculosis, UniProt P9WHJ3).
T2 sequence (P9WHJ3 whole entry): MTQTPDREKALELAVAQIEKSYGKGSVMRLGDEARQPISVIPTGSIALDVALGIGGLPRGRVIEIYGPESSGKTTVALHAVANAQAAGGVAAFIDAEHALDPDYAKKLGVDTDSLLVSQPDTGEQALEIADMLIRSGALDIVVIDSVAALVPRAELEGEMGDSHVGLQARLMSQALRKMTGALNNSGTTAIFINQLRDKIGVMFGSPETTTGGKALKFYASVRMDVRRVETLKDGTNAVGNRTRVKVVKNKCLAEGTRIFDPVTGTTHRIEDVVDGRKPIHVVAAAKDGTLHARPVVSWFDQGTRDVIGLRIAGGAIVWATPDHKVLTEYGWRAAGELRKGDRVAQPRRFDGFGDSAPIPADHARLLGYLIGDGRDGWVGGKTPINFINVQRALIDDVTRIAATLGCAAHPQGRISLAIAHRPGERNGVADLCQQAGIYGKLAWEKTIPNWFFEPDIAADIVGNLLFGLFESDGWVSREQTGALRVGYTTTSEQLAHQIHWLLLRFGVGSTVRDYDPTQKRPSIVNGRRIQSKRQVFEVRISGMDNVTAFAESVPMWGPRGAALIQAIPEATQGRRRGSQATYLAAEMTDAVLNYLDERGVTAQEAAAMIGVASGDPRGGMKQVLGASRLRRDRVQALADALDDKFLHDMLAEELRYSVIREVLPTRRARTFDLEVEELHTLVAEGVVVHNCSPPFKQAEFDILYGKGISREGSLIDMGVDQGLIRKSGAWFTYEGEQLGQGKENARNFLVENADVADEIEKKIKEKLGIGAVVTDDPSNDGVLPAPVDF
Description: Fluorescence Cell-Free Homogeneous Dose Retest to Identify Inhibitors of RecA-Intein Splicing Activity. [Related pubchem assays (depositor defined):AID2097, AID2223, AID489010, AID492950]. The class given is functional.

Experiment [2] has as its target T3, Replicative DNA helicase DnaB (Mycobacterium tuberculosis, UniProt P9WMR3).
T3 sequence (P9WMR3 whole entry): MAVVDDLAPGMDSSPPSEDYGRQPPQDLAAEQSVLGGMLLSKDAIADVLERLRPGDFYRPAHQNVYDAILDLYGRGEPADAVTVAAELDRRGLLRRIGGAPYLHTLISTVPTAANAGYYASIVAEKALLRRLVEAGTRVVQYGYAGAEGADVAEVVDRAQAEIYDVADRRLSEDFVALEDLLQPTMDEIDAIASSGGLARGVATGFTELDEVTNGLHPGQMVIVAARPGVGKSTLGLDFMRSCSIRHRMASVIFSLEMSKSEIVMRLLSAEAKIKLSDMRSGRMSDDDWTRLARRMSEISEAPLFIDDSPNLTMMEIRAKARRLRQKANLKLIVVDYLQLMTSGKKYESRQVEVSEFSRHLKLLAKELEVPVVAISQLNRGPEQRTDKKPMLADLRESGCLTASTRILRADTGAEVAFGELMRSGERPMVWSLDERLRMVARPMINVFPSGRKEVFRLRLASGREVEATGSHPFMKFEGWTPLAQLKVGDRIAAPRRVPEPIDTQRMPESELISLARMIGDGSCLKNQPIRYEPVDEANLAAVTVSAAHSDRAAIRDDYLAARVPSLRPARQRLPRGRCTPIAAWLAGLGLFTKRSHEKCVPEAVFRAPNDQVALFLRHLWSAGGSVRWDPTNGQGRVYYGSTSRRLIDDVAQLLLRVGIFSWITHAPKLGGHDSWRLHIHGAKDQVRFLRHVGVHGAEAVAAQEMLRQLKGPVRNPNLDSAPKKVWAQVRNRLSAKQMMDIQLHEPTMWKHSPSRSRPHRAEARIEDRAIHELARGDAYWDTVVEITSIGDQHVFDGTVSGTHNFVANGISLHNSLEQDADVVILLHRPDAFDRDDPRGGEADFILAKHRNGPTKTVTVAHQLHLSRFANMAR
Put plainly: DnaB intein splicing inhibitors, dose response, biochemical, cell-free fluorescence (AID 449749). It counts as functional.

Experiment [3] concerns the target T4, Long-chain-fatty-acid--AMP ligase FadD28 (Mycobacterium tuberculosis, UniProt P9WQ59).
T4 sequence (P9WQ59 whole entry): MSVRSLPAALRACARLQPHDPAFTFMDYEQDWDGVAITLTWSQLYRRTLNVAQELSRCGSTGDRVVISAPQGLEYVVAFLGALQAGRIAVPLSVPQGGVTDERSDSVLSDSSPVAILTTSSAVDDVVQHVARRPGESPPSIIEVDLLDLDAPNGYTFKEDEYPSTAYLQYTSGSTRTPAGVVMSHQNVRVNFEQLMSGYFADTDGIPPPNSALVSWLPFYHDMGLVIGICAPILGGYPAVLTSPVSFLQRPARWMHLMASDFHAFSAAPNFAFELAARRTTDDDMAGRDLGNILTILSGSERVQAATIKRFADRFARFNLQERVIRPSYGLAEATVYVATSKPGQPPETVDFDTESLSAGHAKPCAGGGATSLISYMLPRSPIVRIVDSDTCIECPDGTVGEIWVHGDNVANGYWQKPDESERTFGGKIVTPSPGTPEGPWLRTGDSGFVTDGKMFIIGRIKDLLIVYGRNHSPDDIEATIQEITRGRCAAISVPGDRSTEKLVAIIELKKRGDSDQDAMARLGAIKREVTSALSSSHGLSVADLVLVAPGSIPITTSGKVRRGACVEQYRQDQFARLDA
Put plainly: Fluorescence polarization aasay to screen for inhibitors that compete for the binding of FadD28 to a bisubstrate Measured in Biochemical System Using Plate Reader - 2147-01_Inhibitor_Dose_CherryPick_Activity. It counts as functional, Mycobacterium tuberculosis H37Rv. In general terms: Polarisation of emitted light reports the rotation of a fluorescent probe.

The subject of a further experiment is Streptococcus. Put plainly: Group A Streptococcus viability loss, dose response, counter-screen for streptokinase expression inhibitor project, luminescence, BacTiterGlo (AID 1915).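 Also: potency for reduction of bacterial viability or growth.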 The class given is functional, organism-based.
Experiment [4] has as its target T5, High affinity choline transporter 1 (Homo sapiens, UniProt Q9GZV3).
T5 sequence (Q9GZV3 whole entry): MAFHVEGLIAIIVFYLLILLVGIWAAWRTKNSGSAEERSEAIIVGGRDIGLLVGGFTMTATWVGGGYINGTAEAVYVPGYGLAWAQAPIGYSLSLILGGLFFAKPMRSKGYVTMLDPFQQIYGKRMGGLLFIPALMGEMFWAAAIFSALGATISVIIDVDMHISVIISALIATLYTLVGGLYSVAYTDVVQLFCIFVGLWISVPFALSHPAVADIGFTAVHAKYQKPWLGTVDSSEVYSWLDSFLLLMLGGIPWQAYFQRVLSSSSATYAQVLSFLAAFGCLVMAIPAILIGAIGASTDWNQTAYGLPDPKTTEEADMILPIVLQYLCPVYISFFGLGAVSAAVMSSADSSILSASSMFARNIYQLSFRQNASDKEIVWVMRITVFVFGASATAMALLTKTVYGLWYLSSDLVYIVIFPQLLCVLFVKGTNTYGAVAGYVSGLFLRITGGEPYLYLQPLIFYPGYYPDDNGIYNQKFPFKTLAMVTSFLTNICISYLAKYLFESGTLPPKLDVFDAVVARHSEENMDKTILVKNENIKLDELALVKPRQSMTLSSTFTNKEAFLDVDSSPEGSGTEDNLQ
Put plainly: CHT inhibitors, dose response, cell-based, 5-point CRC, membrane potential dye (AID 504840). The class given is functional.

Experiment [5] has as its target T6, Endoribonuclease toxin MazF (Escherichia coli K-12, UniProt P0AE70).
T6 sequence (P0AE70 whole entry): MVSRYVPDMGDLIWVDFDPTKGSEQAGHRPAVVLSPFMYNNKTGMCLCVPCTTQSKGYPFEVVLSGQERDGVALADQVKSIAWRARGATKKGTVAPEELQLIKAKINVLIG
Description: MazF toxin RNase activators, dose response, biochemical, fluorescence, single-stranded RNA substrate, uHTS hits (AID 588481). The class given is functional.

Experiment [6] has as its target T6, Endoribonuclease toxin MazF. Put plainly: fluorescent RNA oligo signal without MazF, dose response, counter-screen for MazEF activator project, biochemical, fluorescence, single-stranded RNase substrate (AID 588502). It counts as functional.
The nature of experiment [7]: human group III sPLA2 inhibitors, dose response, biochemical, QFRET, IC50 (AID 743457).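 Also: green fluorescence rise as the enzyme cleaves BODIPY PC-A2 in liposomes; potency for inhibition of the enzyme.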
A short description of experiment [8]: ADAM10 inhibitors, peptide cleavage, dose response, biochemical, QFRET (AID 743254).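 Also: ADAM10 enzyme with the DM2 quenched FRET peptide as substrate; EDANS fluorescence gain as the protease cuts the substrate; inhibitor potency against ADAM10 proteolytic activity.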
Experiment [9] is described as follows: Luminescence Cell-Based Dose Retest to Confirm Inhibitors of Cancer Stem Cells. [Related pubchem assays (depositor defined):AID2717, AID2721]. The class given is functional. To be noted: Homo sapiens.
The target of experiment [10] is T7, DNA repair protein RAD52 homolog (Homo sapiens, UniProt P43351).
T7 sequence (P43351 whole entry): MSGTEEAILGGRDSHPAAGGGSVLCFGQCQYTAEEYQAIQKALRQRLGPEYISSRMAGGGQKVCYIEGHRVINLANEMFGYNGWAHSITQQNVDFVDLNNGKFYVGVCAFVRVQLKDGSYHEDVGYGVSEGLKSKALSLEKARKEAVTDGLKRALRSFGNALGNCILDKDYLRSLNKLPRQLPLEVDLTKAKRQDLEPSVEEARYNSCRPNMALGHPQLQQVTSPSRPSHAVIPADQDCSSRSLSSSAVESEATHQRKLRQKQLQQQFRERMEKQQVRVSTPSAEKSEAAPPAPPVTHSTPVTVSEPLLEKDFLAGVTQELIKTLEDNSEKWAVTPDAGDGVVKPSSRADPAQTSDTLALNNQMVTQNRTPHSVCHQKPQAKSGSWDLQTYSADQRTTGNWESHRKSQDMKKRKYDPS
It counts as functional, biochemical.

For a further experiment, the target named is Cytochrome P450 2C19 (Homo sapiens, UniProt P33261). Put plainly: Cytochrome panel assay with activity outcomes. Panel member name: p450-cyp2c19 Compounds with AC50 equal or less than 10 uM are considered active. It counts as functional. To be noted: read-out: AC50.
Chain of Cytochrome P450 2C19 (P33261 whole entry): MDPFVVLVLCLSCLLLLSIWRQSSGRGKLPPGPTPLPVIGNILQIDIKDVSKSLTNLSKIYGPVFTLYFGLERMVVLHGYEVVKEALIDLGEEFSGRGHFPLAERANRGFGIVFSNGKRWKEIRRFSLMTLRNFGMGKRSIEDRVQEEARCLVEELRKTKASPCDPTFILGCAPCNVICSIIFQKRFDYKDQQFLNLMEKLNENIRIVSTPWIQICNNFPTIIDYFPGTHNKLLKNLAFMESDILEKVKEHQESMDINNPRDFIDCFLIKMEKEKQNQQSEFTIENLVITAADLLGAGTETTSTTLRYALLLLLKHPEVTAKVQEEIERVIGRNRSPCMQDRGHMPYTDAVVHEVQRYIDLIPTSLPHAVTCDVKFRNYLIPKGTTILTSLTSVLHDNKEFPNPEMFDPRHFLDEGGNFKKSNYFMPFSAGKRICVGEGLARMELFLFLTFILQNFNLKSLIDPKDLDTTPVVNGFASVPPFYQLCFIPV
The test system of a further experiment is Vero. Description: cells. The class given is functional, cell-based. To be noted: Chlorocebus sabaeus.

The term EC50 denotes the concentration needed to bring the measured effect to its halfway point. Broadly, the AC50 is the midpoint of the concentration-response curve, whichever way the signal moves. `CC1=NN(c2nc(-c3ccccc3)cs2)C(=O)C1`: the EC50 in experiment [1] is 16.9 µM (active); at Streptokinase A, 10 µM (active); on Protein RecA, 6.75 µM (active); with Streptococcus, > 150 µM (not active). The AC50 is 7.99 µM (active) in [2] and > 100 µM (inactive) in experiment [3].
What is called IC50 is the concentration that inhibits the measured activity by half. As for `Cc1ccc(C[S+]([O-])Cc2ccc(C(=O)NC3CCC(C)CC3)o2)cc1` (stereo not drawn), the IC50 in experiment [4] was 13.8 µM (active).
On to `CC/C(C)=N/NS(=O)(=O)c1ccc(C)c([N+](=O)[O-])c1`, for which the results for the EC50 in [5] and in experiment [6] were > 99 µM (inactive) and 7.91 µM (active), respectively.
For `Cc1ccc(N/C(C(Cl)=C(Cl)Cl)=C(/Cl)[N+](=O)[O-])c(C)c1`, the AC50 in experiment [3] is > 100 µM (inactive).
Take `CCN(CC)CCCNC(=O)c1cc(-c2ccc(Cl)c(Cl)c2)on1`: in experiment [4], the IC50 is 12.9 µM (active).
Turning to `Cc1ccccc1OCC(=O)NNC(=S)NC(=O)c1ccccc1[N+](=O)[O-]`, the IC50 in experiment [7] was 64.9 µM (inactive).
`Oc1ccccc1-c1nc(NCc2ccccc2)c2ccccc2n1`: the EC50 in experiment [5] and in experiment [6] was > 99 µM (inactive) each time.
Turning to `O=C(NN=C(S)NC1CCCCC1)c1ccccc1O`, the IC50 in experiment [7] was > 122 µM (inactive).
For `CN(c1ccc(C(=O)NCCSCc2ccccc2)cc1)S(=O)(=O)c1ccccc1`, the AC50 in experiment [3] is > 100 µM (inactive).
Turning to `O=C(NNC(=S)NC(=O)c1ccccc1[N+](=O)[O-])c1ccccc1Cl`, the IC50 in experiment [7] was 115 µM (inactive).
Regarding `O=C(N=CNOCc1ccc(Cl)cc1Cl)NOCc1ncc(C(F)(F)F)cc1Cl`, the IC50 in experiment [8] is 12.9 µM (inactive). Besides, the concentration at half-maximal activity (AC50) in experiment [9] is 4.02 µM (active).
As to `CCOc1ccc2c(c1)c1nc3ccccc3nc1n2C`, the EC50 in experiment [5] and in [6] was > 99 µM (inactive) each time.
As to `CN(C)CCCn1c2c3ccccc3ccc2c2oc(=O)c3ccccc3c21`, the AC50 is < 0.681 µM (active) in experiment [10] and 0.794 µM (inconclusive) at Cytochrome P450 2C19. Further, the EC50 in [5] and in experiment [6] was > 99 µM (inactive) each time.
For the molecule `CC(C)C[C@H](NC(=O)c1[nH]cnc1C(=O)NC(c1ccccc1)c1ccccc1)C(=O)OCc1ccccc1`, the IC50 in experiment [8] was 19.4 µM (inactive).
Take `COc1ccc(NC(=O)[C@H](Cc2c[nH]c3ccccc23)NC(=O)[C@@H]2Cc3ccccc3CN2)cc1`: the IC50 in the experiment with Vero was 11.8 µM (active).
Turning to `O=C(Nc1ccc(S(=O)(=O)Nc2cnc3ccccc3n2)cc1)c1cc(F)c(F)cc1Cl`, in experiment [4], the IC50 was 12.1 µM (active).

(Values after ChEMBL document CHEMBL1201862, “PubChem BioAssay data set” (2004).)
